Laboratory results from ChEMBL document CHEMBL1156236, “Trypanoside, anti-tuberculosis, leishmanicidal, and cytotoxic activities of tetrahydrobenzothienopyrimidines” (Bioorg Med Chem, 2010).
Converted amounts (≈) assume the structure as drawn.

Legend:
Vero = experiment: Cytotoxicity against african green monkey Vero cells after 72 hrs by MTS assay; conditions: Chlorocebus sabaeus, Vero, 72 h
Trypanosoma cruzi = experiment: Antitrypanosomal activity against Trypanosoma cruzi tulahuen C4 trypomastigotes infected in african green monkey Vero cells assessed as CPRG cleavage after 120 hrs by microplate reader; type: functional, organism-based
[1] = Selectivity index, ratio of IC50 for african green monkey Vero cells to IC50 for Trypanosoma cruzi tulahuen C4; conditions: Vero cells
[2] = test system: Mycobacterium tuberculosis; experiment: Antitubercular activity against Mycobacterium tuberculosis H37Rv ATCC 27294 after 7 days by microplate alamar blue assay; type: functional; conditions: H37Rv ATCC 27294, 168 h
[3] = Cytotoxicity against BALB/c mouse macrophages after 48 hrs by trypan blue dye exclusion method; type: cell-based; conditions: Macrophage
Leishmania amazonensis [4] = experiment: Antileishmanial activity against Leishmania amazonensis MHOM/BR/76/LTB-012 amastigotes infected BALB/c mouse macrophages after 48 hrs by MTT assay; type: functional, organism-based; conditions: MHOM/BR/76/LTB-012, 48 h
[5] = Selectivity index, ratio of IC50 for BALB/c mouse macrophages to IC50 for Leishmania amazonensis MHOM/BR/76/LTB-012
Leishmania amazonensis [6] = experiment: Antileishmanial activity against Leishmania amazonensis Lma CL1 amastigotes infected BALB/c mouse macrophages after 48 hrs by Giemsa staining method; type: functional, organism-based; conditions: Lma CL1, 48 h
Leishmania braziliensis = experiment: Antileishmanial activity against Leishmania braziliensis MHOM/PE/PER006 promastigote infected BALB/c mouse macrophages after 48 hrs by Giemsa staining method; type: functional, organism-based; conditions: MHOM/PE/PER006, 48 h
Leishmania peruviana = experiment: Antileishmanial activity against Leishmania peruviana MHOM/PE/LCA08 promastigote infected BALB/c mouse macrophages after 48 hrs by Giemsa staining method; type: functional, organism-based; conditions: MHOM/PE/LCA08, 48 h
Leishmania amazonensis [7] = experiment: Antileishmanial activity against Leishmania amazonensis LV79 MPRO/BR/72/M1841 amastigotes infected BALB/c mouse assessed as lesion diameter at 5 mg/kg/day, intralesionally administered after 1 week post infection 3 times per week for 6 weeks measured on week 4 relative to control; type: functional
Leishmania amazonensis [8] = experiment: Antileishmanial activity against Leishmania amazonensis LV79 MPRO/BR/72/M1841 amastigotes infected BALB/c mouse assessed as lesion diameter at 5 mg/kg/day, intralesionally administered after 1 week post infection 3 times per week for 6 weeks measured on week 7 relative to control; type: functional
Leishmania amazonensis [9] = experiment: Antileishmanial activity against Leishmania amazonensis LV79 MPRO/BR/72/M1841 amastigotes infected BALB/c mouse assessed as reduction of parasite burden at 5 mg/kg/day, intralesionally administered after 1 week post infection 3 times per week for 6 weeks measured on week 4 by fluorescence method relative to control; type: functional; set-up: scale not given: the % may be the effect or the level left
Leishmania amazonensis [10] = experiment: Antileishmanial activity against Leishmania amazonensis LV79 MPRO/BR/72/M1841 amastigotes infected BALB/c mouse assessed as reduction of parasite burden at 5 mg/kg/day, intralesionally administered after 1 week post infection 3 times per week for 6 weeks measured on week 7 by fluorescence method relative to control; type: functional; set-up: scale not given: the % may be the effect or the level left
[11] = Cytotoxicity against BALB mouse 3T3 cells; type: cell-based; conditions: BALB 3T3 cells
NCI-H460 = experiment: Cytotoxicity against human NCI-H460 cells; type: functional
DU-145 = experiment: Cytotoxicity against human DU145 cells; type: functional
MCF7 = experiment: Cytotoxicity against human MCF7 cells; type: functional
M14 = experiment: Cytotoxicity against human M14 cells; type: functional
HT-29 = experiment: Cytotoxicity against human HT-29 cells; type: functional
K562 = experiment: Cytotoxicity against human K562 cells; type: functional
[12] = Selectivity index, ratio of IC50 for african green monkey Vero cells to MIC for Mycobacterium tuberculosis H37Rv ATCC 27294 by microplate alamar blue assay; type: functional
[13] = test system: Mycobacterium tuberculosis; experiment: Antitubercular activity against Mycobacterium tuberculosis H37Rv ATCC 27294 after 7 days by low oxygen recovery assay; type: functional; conditions: H37Rv ATCC 27294, 168 h
[14] = Selectivity index, ratio of IC50 for african green monkey Vero cells to MIC for Mycobacterium tuberculosis H37Rv ATCC 27294 by low oxygen recovery assay; type: functional

SMILES	IC50 (Vero) [µM]	IC50 (Trypanosoma cruzi) [µM]	selectivity ratio [1]	MIC [2] [µM]	IC50 [3] [µM]	IC50 (Leishmania amazonensis [4]) [µM]	Ratio IC50 [5]	GI50 [11] [µM]	GI50 (NCI-H460) [µM]	GI50 (DU-145) [µM]	GI50 (MCF7) [µM]	GI50 (M14) [µM]	GI50 (HT-29) [µM]	GI50 (K562) [µM]	Ratio IC50 [12]	MIC [13] [µM]	Ratio IC50 [14]	also measured
Clc1ccc(/C=N/Nc2ncnc3sc4c(c23)CCCC4)cc1	20.4	13.1	1.6	> 250	142	1.7	85.2	18.7	12.8	14.6	8.4	> 170	15.1	6.7				IC50 (Leishmania amazonensis [6]): > 30 µM; IC50 (Leishmania braziliensis): 17.3 µM; IC50 (Leishmania peruviana): > 30 µM; Activity (Leishmania amazonensis [7]): 3.6 mm; Activity (Leishmania amazonensis [8]): 5.2 mm; Activity (Leishmania amazonensis [9]): 46%; Activity (Leishmania amazonensis [10]): 25%
Brc1ccc(/C=N/Nc2ncnc3sc4c(c23)CCCC4)cc1	15.5	20.3	0.8	> 250	7.8	0.9	8.8	17.4	10.5	14.6	5.9	33.6	12.4	5.7				IC50 (Leishmania amazonensis [6]): > 2 µM; IC50 (Leishmania braziliensis): > 2 µM; IC50 (Leishmania peruviana): > 2 µM
C/C(=N/Nc1ncnc2sc3c(c12)CCCC3)c1ccccc1	12.4	13.7	0.9	72.6 (≈ 23.4 µg/mL)	159	28.5	5.6	5.4	15.9	16.1	16.5	19.8	21.9	10.9	1.4	8.7 (≈ 2.81 µg/mL)	11.5	
FC(F)(F)c1ccccc1/C=N/Nc1ncnc2sc3c(c12)CCCC3	8	13.8	0.6	15.7 (≈ 5.91 µg/mL)	3.1	1.2	2.6	15.8	5.4	3.5	4.8	6.5	4.5	1.7	1.3	15.4 (≈ 5.8 µg/mL)		
CCc1ccc(/C=N/Nc2ncnc3sc4c(c23)CCCC4)cc1		> 25		> 250	151	15.7	9.6	36.1	28.2	58.8	18.5	190	32.2	11.1				IC50 (Leishmania amazonensis [6]): 8.2 µM; IC50 (Leishmania braziliensis): 10.5 µM; IC50 (Leishmania peruviana): 9.5 µM; Activity (Leishmania amazonensis [7]): 3 mm; Activity (Leishmania amazonensis [8]): 4.7 mm; Activity (Leishmania amazonensis [9]): 30%; Activity (Leishmania amazonensis [10]): 2%
Brc1ccccc1/C=N/Nc1ncnc2sc3c(c12)CCCC3	7.7	9.3	0.8	24.3 (≈ 9.41 µg/mL)	7.4	1.3	5.8	11.2	7.7	7.1	4.5	15.4	8	3	0.8			
Oc1ccc(/C=N/Nc2ncnc3sc4c(c23)CCCC4)cc1	12.3	11.3	1.1	72.1 (≈ 23.4 µg/mL)	178	41.6	4.3	6.6	14.9	20.8	17	17.2	19.5	15.8	0.6			
Clc1ccccc1/C=N/Nc1ncnc2sc3c(c12)CCCC3	14.6	21.3	0.7	124 (≈ 42.6 µg/mL)	11.2	2.2	5	88.1	62.9	77.8	22	> 170	56.5	19.8	0.7			
FC(F)(F)c1ccc(/C=N/Nc2ncnc3sc4c(c23)CCCC4)cc1	8	10.5	0.8	16.2 (≈ 6.1 µg/mL)	8.1	2	4.1	10.8	15.3	14.8	5.4	16.9	7	6.6	5.5	15.9 (≈ 5.98 µg/mL)	5.6	
C(=N\Nc1ncnc2sc3c(c12)CCCC3)/c1ccco1	10.1	16.1	0.6	39.9 (≈ 11.9 µg/mL)	2.4	4.2	0.6	7.8	7.1	15.6	1	11.1	8.5	4	1	9.7 (≈ 2.89 µg/mL)	4.2	
COc1ccc(/C=N/Nc2ncnc3sc4c(c23)CCCC4)cc1	17.7	16	1.1	71.2 (≈ 24.1 µg/mL)	63.9	47.5	1.3	14.9	17.1	23.1	12.5	16.3	17.3	13.9	3.2	26.9 (≈ 9.1 µg/mL)	8.4	
